The record followed here is ChEMBL document CHEMBL4706528, “The design, synthesis and anti-tumor mechanism study of new androgen receptor degrader” (Eur J Med Chem, 2020).

The test system of test [1] is LNCaP. Nature of the test: Induction of apoptosis in human LNCaP cells assessed as early apoptotic cells level at 10 micromol/L incubated for 24 hrs by Annexin V/PI staining staining based flow cytometry (reference value: 2.09%). It is filed as functional. The settings on record: dose 10 µmol/L, at 10 µM.
The subject of test [2] is LNCaP. Nature of the test: Induction of cell cycle arrest in human LNCaP cells assessed as accumulation at S phase at 2 micromol/L after 24 hrs by RNase A/PI-staining based flow cytometric analysis (reference value: 20.69%). Type of test: functional. The note with it: dose 2 µmol/L, at 2 µM. (In general: In flow cytometry, cells or beads pass a laser one at a time.)
Test [3] has as its system LNCaP. In words: Induction of apoptosis in human LNCaP cells assessed as late cells level at 2 micromol/L incubated for 24 hrs by Annexin V/PI staining staining based flow cytometry (reference value: 0.940%). The settings on record: dose 2 µmol/L, at 2 µM. It is filed as functional.
Test [4] deals with LNCaP. In words: Induction of cell cycle arrest in human LNCaP cells assessed as accumulation at G2 phase at 2 micromol/L after 24 hrs by RNase A/PI-staining based flow cytometric analysis (reference value: 20.87%). It is filed as functional. The settings on record: dose 2 µmol/L, at 2 µM.
For test [5], the target named is Prostate-specific antigen (Homo sapiens) (UniProt P07288). In words: Induction of downregulation of PSA (unknown orgin) human LNCaP cells at 10 uM after 24 hrs by Western blot analysis. (In western blotting, separated proteins are transferred to a membrane and probed.)
Prostate-specific antigen (Homo sapiens), sequence (P07288 whole entry, looked up): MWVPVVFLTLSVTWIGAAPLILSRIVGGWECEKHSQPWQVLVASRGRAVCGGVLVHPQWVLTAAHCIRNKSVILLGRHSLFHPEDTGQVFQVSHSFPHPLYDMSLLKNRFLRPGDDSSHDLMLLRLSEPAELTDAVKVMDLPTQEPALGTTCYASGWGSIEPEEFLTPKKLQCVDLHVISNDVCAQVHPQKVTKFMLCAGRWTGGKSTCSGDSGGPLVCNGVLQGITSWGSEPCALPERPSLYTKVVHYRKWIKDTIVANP
The subject of test [6] is LNCaP. Nature of the test: Antiproliferative activity against androgen-positive human LNCaP cells assessed as cell growth inhibition measured after 72 hrs by SRB assay. Type of test: functional, cell-based. (In SRB staining, fixed cells bind dye roughly in proportion to their protein.)
The target of test [7] is T1, Androgen receptor (Homo sapiens) (UniProt P10275).
T1 sequence (whole entry): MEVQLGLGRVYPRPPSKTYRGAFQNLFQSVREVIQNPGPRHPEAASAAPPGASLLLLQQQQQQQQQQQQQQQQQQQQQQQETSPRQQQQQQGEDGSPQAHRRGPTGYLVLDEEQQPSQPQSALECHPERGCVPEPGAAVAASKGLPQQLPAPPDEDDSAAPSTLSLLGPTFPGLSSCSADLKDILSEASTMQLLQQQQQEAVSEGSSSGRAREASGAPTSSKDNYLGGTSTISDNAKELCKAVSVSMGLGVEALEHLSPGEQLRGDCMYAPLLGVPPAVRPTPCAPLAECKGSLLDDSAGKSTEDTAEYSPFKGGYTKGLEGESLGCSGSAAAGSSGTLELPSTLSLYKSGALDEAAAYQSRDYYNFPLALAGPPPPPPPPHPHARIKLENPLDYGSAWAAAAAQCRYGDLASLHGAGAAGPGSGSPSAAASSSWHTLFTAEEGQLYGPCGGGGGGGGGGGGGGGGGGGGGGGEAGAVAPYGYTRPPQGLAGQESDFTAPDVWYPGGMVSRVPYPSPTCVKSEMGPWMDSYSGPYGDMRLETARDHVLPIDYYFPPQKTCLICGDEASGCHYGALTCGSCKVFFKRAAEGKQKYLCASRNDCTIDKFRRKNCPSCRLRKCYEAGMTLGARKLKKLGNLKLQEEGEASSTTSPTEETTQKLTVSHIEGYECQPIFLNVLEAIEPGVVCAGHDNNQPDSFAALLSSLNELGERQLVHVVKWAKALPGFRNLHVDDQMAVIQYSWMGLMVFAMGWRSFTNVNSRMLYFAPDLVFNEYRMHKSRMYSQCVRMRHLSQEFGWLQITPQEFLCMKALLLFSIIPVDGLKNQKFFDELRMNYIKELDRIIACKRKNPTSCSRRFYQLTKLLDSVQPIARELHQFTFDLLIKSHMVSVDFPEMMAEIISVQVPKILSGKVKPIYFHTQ
Nature of the test: Selective androgen receptor degradation activity at androgen receptor in human LNCaP cells assessed as down regulation of protein level at 10 uM after 24 hrs in presence of E-64 by Western blot analysis. Type of test: cell-based.

Test [8] relates to LNCaP. In words: Induction of apoptosis in human LNCaP cells assessed as viable cells level at 2 micromol/L incubated for 24 hrs by Annexin V/PI staining staining based flow cytometry (reference value: 96.3%). Type of test: functional. The note with it: dose 2 µmol/L, at 2 µM.
Test [9] concerns LNCaP. Nature of the test: Induction of cell cycle arrest in human LNCaP cells assessed as accumulation at G1 phase at 2 micromol/L after 24 hrs by RNase A/PI-staining based flow cytometric analysis (reference value: 47.99%). It is filed as functional. The note with it: dose 2 µmol/L, at 2 µM.
Test [10] deals with LNCaP. Nature of the test: Induction of cell cycle arrest in human LNCaP cells assessed as accumulation at G1 phase at 1 micromol/L after 24 hrs by RNase A/PI-staining based flow cytometric analysis (reference value: 47.99%). It is filed as functional. The settings on record: dose 1 µmol/L, at 1 µM.
In test [11] the target is Transmembrane protease serine 2 (Homo sapiens) (UniProt O15393). Nature of the test: Induction of downregulation of TMPRSS2 (unknown orgin) human LNCaP cells at 1 uM after 24 hrs by Western blot analysis.
Transmembrane protease serine 2 (Homo sapiens), sequence (O15393 1-255 limits assumed): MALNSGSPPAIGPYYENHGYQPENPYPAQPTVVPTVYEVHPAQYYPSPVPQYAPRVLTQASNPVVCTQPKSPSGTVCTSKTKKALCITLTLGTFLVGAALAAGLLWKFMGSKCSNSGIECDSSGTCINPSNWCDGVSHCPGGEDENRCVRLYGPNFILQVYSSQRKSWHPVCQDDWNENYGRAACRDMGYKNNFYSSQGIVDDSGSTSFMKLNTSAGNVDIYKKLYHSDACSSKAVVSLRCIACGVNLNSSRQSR
Transmembrane protease serine 2 (Homo sapiens), sequence (O15393 256-492 limits assumed): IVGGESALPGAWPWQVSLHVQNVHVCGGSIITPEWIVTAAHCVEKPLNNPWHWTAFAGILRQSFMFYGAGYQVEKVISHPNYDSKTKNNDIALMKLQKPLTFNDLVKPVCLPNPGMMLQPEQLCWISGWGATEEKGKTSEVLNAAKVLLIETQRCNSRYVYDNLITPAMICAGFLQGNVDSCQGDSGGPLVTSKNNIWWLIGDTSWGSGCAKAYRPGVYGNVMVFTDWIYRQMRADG
Test [12] concerns the target Prostate-specific antigen (Homo sapiens) (UniProt P07288). Nature of the test: Induction of downregulation of PSA (unknown orgin) human LNCaP cells at 1 uM after 24 hrs by Western blot analysis.
For test [13], the target named is T1, Androgen receptor (Homo sapiens). Nature of the test: Selective androgen receptor degradation activity at androgen receptor in human LNCaP cells assessed as down regulation of protein level at 1 uM after 24 hrs by Western blot analysis. It is filed as cell-based.
Test [14] has as its target Prostate-specific antigen (Homo sapiens) (UniProt P07288). In words: Induction of downregulation of PSA (unknown orgin) human LNCaP cells at 2 uM after 24 hrs by Western blot analysis.
Test [15] has as its system LNCaP. In words: Induction of apoptosis in human LNCaP cells assessed as viable cells level at 1 micromol/L incubated for 24 hrs by Annexin V/PI staining staining based flow cytometry (reference value: 96.3%). Type of test: functional. The note with it: dose 1 µmol/L, at 1 µM.
Test [16] has as its system LNCaP. In words: Induction of apoptosis in human LNCaP cells assessed as necrotic cells level at 1 micromol/L incubated for 24 hrs by Annexin V/PI staining staining based flow cytometry (reference value: 0.694%). It is filed as functional. The note with it: dose 1 µmol/L, at 1 µM.
The test system of test [17] is LNCaP. Nature of the test: Induction of apoptosis in human LNCaP cells assessed as late apoptotic cells level at 1 micromol/L incubated for 24 hrs by Annexin V/PI staining staining based flow cytometry (reference value: 0.940%). It is filed as functional. The note with it: dose 1 µmol/L, at 1 µM.
The target of test [18] is T1, Androgen receptor (Homo sapiens). Nature of the test: Selective androgen receptor degradation activity at androgen receptor in human LNCaP cells assessed as down regulation of protein level at 2 uM after 24 hrs by Western blot analysis. It is filed as cell-based.
Test [19] relates to LNCaP. Nature of the test: Induction of cell cycle arrest in human LNCaP cells assessed as accumulation at S phase at 1 micromol/L after 24 hrs by RNase A/PI-staining based flow cytometric analysis (reference value: 20.69%). Type of test: functional. The settings on record: dose 1 µmol/L, at 1 µM.
For test [20], the target named is T1, Androgen receptor (Homo sapiens). Nature of the test: Selective androgen receptor degradation activity at androgen receptor in human LNCaP cells assessed as down regulation of protein level at 10 uM after 72 hrs by Western blot analysis. Type of test: cell-based.
Test [21] concerns the target Transmembrane protease serine 2 (Homo sapiens) (UniProt O15393). Nature of the test: Induction of downregulation of TMPRSS2 (unknown orgin) human LNCaP cells at 10 uM after 24 hrs by Western blot analysis.
Test [22] has as its target T1, Androgen receptor (Homo sapiens). In words: Selective androgen receptor degradation activity at androgen receptor in human LNCaP cells assessed as down regulation of protein level at 10 uM after 24 hrs in presence of MG132 by Western blot analysis. It is filed as cell-based.
Test [23] has as its system LNCaP. In words: Induction of apoptosis in human LNCaP cells assessed as necrotic cells level at 2 micromol/L incubated for 24 hrs by Annexin V/PI staining staining based flow cytometry (reference value: 0.694%). Type of test: functional. The settings on record: dose 2 µmol/L, at 2 µM.
In another test the test system is SGC-7901. Nature of the test: Antiproliferative activity against androgen-positive human SGC-7901 cells assessed as cell growth inhibition measured after 72 hrs by SRB assay. Type of test: functional, cell-based. The settings on record: SGC-7901, 72 h.

Each structure is given as a SMILES string. pIC50: −log10 of the molar value. Calls of active or inactive are those of the source. The rule behind the calls is not given here.

For the compound `CC1(C)C(=O)N(c2ccc(C#N)c(C(F)(F)F)c2)C(=S)N1CCCCCn1cc(COCCOCCOC(=O)CC23CC4CC(CC(C4)C2)C3)nn1`, the Activity in the test with LNCaP [1] stood at 14.4%; in the test on LNCaP [2], 12.65%; in the test on LNCaP [3], 1.59%; in the test on LNCaP [4] it was 8.9%; with LNCaP [8] it was 96.1%; in the test on LNCaP [9], 67.54%. Further, the Activity with LNCaP [10] was 59.3%; with LNCaP [15], 96.1%; with LNCaP [16], 0.774%; with LNCaP [17], 1.59%; with LNCaP [19], 19.84%; in the test on LNCaP [23], 0.774%. Besides, the result in [5], in test [7], in test [11], in test [12], in test [13] and in test [14] was Active. Besides, the outcome in test [18], in [20], in [21] and in test [22] was Active. The negative logarithm of the IC50 (pIC50) in the test on LNCaP [6] is 5.76; in the test on SGC-7901, 5.16.

Usually pIC50 stands for the negative decadic logarithm of the IC50, by convention in mol/L.
